Tests used:
[1] = tested on: sciatic nerve axons of SOD1 G93A mice; experiment: Sciatic nerve axon numbers (axonal degeneration); assay type: in vivo, mouse; conditions: day 100, female, Fas30 vs transgenic vehicle
Method: Sciatic nerves were removed separately and postfixed for 24 h in 4% paraformaldehyde. […] After three washing steps the nerves were embedded in […] and Propylenoxide with a ratio of first 1:1 and then 2:1, each for 35 min. Before putting into a flat mould for drying and harding, Propylenoxide had to evaporate under a hood for 1 h. The sciatic nerves embedded in […] blocks were cut with a Microtom (Leica Ultracut) into semithin sections (380 nm) and were collected on gelatine coated glass slides. […] After washing in distilled water, slices were dried and mounted in […] cuts of sciatic nerve axons were evaluated from light microscopy images for axonal numbers and axoplasm size with the semi-automated counting and size measuring tool of the Image J software. In the d50 treatment group analyzed at […], a total of 17 female mice were counted from vehicle (5), Fas30 (7), and wildtype (5).

[2] = tested on: SOD1 wt and SOD1G93A microglia; experiment: LPS-triggered cytokine/chemokine release of primary microglia (ELISA); assay type: cell-based, mouse; conditions: 18 hours; for proinflammatory cytokine release: SOD1 wt and SOD1G93A microglia
Method: Primary cell cultures were prepared from whole brains of newborn (PO) mice and cultured in complete Dulbecco's modified Eagle's medium (DMEM, Invitrogen/Gibco, Karlsruhe, Germany), supplemented with 10% fetal calf serum (FCS, Invitrogen/Gibco), 100 U/ml penicillin and 100 μg/ml streptomycin (both Biochrom, Berlin, Germany) as previously described (Regen, et al. (2011) Brain, Behavior, and Immunity 25(5): 957-970). In brief, brains of newborn B6/SJL SOD1G93A and from B6/SJL SOD1wt, respectively, were liberated from meninges and blood vessels, washed with Hank's balanced salt solution (HBSS; Biochrom) and incubated with 2.5% trypsin (Biochrom) for 10 min at 37° C. The enzymatic reaction was stopped by addition of complete medium, supplemented with DNAse [5 mg/ml] (Worthington Biochemicals, Lakewood, N.J., USA). Remaining cell clusters were mechanically separated and the suspension was centrifuged at 900 rpm at 4° C. for 10 min. The supernatant was removed, cells were resuspended in fresh complete medium and seeded in 75 cm2, poly-L-lysine (PLL)-coated culture flasks. Immediately before being used, flasks were incubated with 100 μg/ml PLL (Invitrogen/Gibco) for 30 min at RT and excess of PLL was washed off by three rinses with sterile ddH2O. Subsequently, cultures were maintained in a humidified atmosphere with 5% CO2 at 37° C. On the next day, primary mixed-glial cultures were washed three times (PBS, Invitrogen/Gibco) and received fresh complete medium, the latter being repeated the following day. One week after seeding, microglial proliferation was stimulated by adding complete medium supplemented with 30% of L929-conditioned cell culture supernatant (see section “L929 Mouse Fibroblast Cultures” below). After another two days, microglial cells were harvested by shaking them off the astrocytic layer, taking advantage of their different adhesion properties. After washing with complete medium and counting, cells were plated in 96-well plates at a density of 15,000 cells/well for ELISA or were plated in 24-well plates at a density of 50,000 cells/well on PLL-coated coverslips for later immunocytochemical processing.
Primary cultures underwent five different general treatments: (a) Cells were left untreated in medium serving as controls. (b) Cells were stimulated with the TLR4 ligand LPS (E. coli R515; Axxora/Appotech TLR ligand set 1, APO.54N-018) for 18 hours at a final concentration of 10 ng/ml. (c) Cells underwent a treatment with Fasudil at 2 μM, 10 μM or 50 μM, respectively, for 18 hours. (d) Cells were stimulated with LPS, as described above, in the presence of various concentrations of Fasudil. (e) Cells were preincubated for 1 h, 4 h or 12 h, respectively with Fasudil at 50 μM, prior to a LPS challenge in the continued presence of Fasudil at 50 μM. Stimulation experiments were routinely carried out twice.
Following microglial stimulations and treatments, culture supernatants were collected and stored at −20° C. until assayed. Supernatants were analyzed for the release of cyto- and chemokines by commercial enzyme-linked immunosorbent assay (ELISA) test systems. Levels of IL-6, CCL2 (monocyte chemoattractant protein, MCP-1), CCL3 (macrophage inflammatory protein, MIP-1α) and CCL5 (regulated upon activation normal T-cell expressed and presumably secreted, RANTES) and CXCL1 (Chemokine (C-X-C motif) ligand 1) were determined using DuoSet ELISA Development Kits (R&D Systems). TNFα (tumor necrosis factor α) was determined using MAXTM ELISA kit (Biolegend). Absorbance was measured at 450 nm (with a 540 nm reference wavelength) using a microplate reader (Bio-Rad).

[3] = LPS 10 ng/ml + Fasudil 50 μM, both genotypes

## O=S(=O)(c1cccc2cnccc12)N1CCCNCC1 [Fasudil, 1-(5-isoquinolinesulfonyl)homopiperazine]
[1]
  axonal number by axoplasmal diameter size range: no significant differences
  total number of preserved axons in the sciatic nerve: comparable axon numbers
[2]; LPS 10 ng/ml + Fasudil 2 μM
  proinflammatory cytokine release: not efficient in significantly reducing
[2]; LPS 10 ng/ml + Fasudil 10 μM
  proinflammatory cytokine release: not efficient in significantly reducing
[2]; [3]
  release of CCL3: markedly reduced
  release of CXCL1: markedly reduced
  release of IL-6: markedly reduced
  release of RANTES: markedly reduced
  release of TNFα: markedly reduced
[2]; LPS 10 ng/ml + Fasudil 50 μM, relative to LPS alone (100%), slightly increased/unaffected
  change of CCL2 release: +8.9%

— patent US9980972B2, “Rho kinase inhibitors for use in treating familial amyotrophic lateral sclerosis” (GEORG-AUGUST-UNIVERSITÄT GÖTTINGEN STIFTUNG ÖFFENTLICHEN …, priority 2012, dated 2018)
